From ChEMBL document CHEMBL1201862, “PubChem BioAssay data set” (2004)
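Grown in 96-well plates, cells were treated for 48 hours with each compound at five concentrations. Insufficient inhibition: endpoint recorded as highest concentration tested. GI50 is the concentration that inhibits growth by half.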 The source made the active and inactive calls. Cut-off read from the data, not from the text of the source: active = GI50 up to about 1.1 µM and inactive = higher.

Tests used:
Test in all cases: inhibition of tumour cell growth, NCI panel, 48 h
[1] = system: NCI-H522
[2] = system: COLO 205
[3] = system: HOP-18
[4] = system: A549
[5] = system: EKVX
[6] = system: LXFL 529
[7] = system: UO-31
[8] = system: SK-MEL-5
[9] = system: DMS-114
[10] = system: SNB-19
[11] = system: UACC-257
[12] = system: SW-620
[13] = system: OVCAR-8
[14] = system: NCI-H460
[15] = system: HCC 2998
[16] = system: M19-MEL
[17] = system: TK-10
[18] = system: ACHN
[19] = system: OVCAR-4
[20] = system: DLD-1
[21] = system: IGROV-1
[22] = system: NCI-H23
[23] = system: A498
[24] = system: 786-0
[25] = system: HL-60
[26] = system: SR
[27] = system: OVCAR-3
[28] = system: KM12
[29] = system: SF-295
[30] = system: SF-268
[31] = system: HOP-92
[32] = system: HCT-116
[33] = system: U-251
[34] = system: SF-539
[35] = system: CAKI-1
[36] = system: XF498
[37] = system: CCRF-CEM
[38] = system: M14
[39] = system: LOX IMVI
[40] = system: HT-29
[41] = system: SNB-75
[42] = system: K562
[43] = system: SK-MEL-28
[44] = system: SK-OV-3
[45] = system: RXF 393
[46] = system: KM-20L2
[47] = system: SNB-78
[48] = system: SN12C
[49] = system: MOLT-4
[50] = system: NCI-H226
[51] = system: Malme-3M
[52] = system: UACC-62
[53] = system: HOP-62
[54] = system: DMS-273
[55] = system: RPMI-8226
[56] = system: SK-MEL-2
[57] = system: HCT-15
[58] = system: OVCAR-5

Measured: GI50

Cc1c(C(=N)N)oc2ccccc12
inactive: [1] > 100 µM | [2] > 100 µM | [3] > 100 µM | [4] > 100 µM | [5] > 100 µM | [6] > 100 µM | [7] > 100 µM | [8] > 100 µM | [9] > 100 µM | [10] > 100 µM | [11] > 100 µM | [12] > 100 µM | [13] > 100 µM | [14] > 100 µM | [15] > 100 µM | [16] > 100 µM | [17] > 100 µM | [18] > 100 µM | [19] > 100 µM | [20] > 100 µM | [21] > 100 µM | [22] > 100 µM | [23] > 100 µM | [24] > 100 µM | [25] > 100 µM | [26] > 100 µM | [27] > 100 µM | [28] > 100 µM | [29] > 100 µM | [30] > 100 µM | [31] > 100 µM | [32] > 100 µM | [33] > 100 µM | [34] > 100 µM | [35] > 100 µM | [36] 21.4 µM | [37] > 100 µM | [38] > 100 µM | [39] > 100 µM | [40] > 100 µM | [41] 79.6 µM | [42] > 100 µM | [43] > 100 µM | [44] > 100 µM | [45] > 100 µM | [46] > 100 µM | [47] > 100 µM | [48] > 100 µM | [49] > 100 µM | [50] > 100 µM | [51] > 100 µM | [52] > 100 µM | [53] > 100 µM

Cn1cc(NC(=O)[C@H]2CCC(N)=N2)cc1C(=O)NCCC(=N)N
inactive: [1] > 100 µM | [2] > 100 µM | [3] > 100 µM | [4] > 100 µM | [5] > 100 µM | [6] > 100 µM | [7] > 100 µM | [9] > 100 µM | [10] > 100 µM | [11] > 100 µM | [12] > 100 µM | [13] > 100 µM | [14] > 100 µM | [15] > 100 µM | [17] > 100 µM | [18] > 100 µM | [20] > 100 µM | [21] > 100 µM | [22] > 100 µM | [24] > 100 µM | [25] > 100 µM | [26] > 100 µM | [27] > 100 µM | [28] > 100 µM | [29] > 100 µM | [30] > 100 µM | [31] > 100 µM | [32] > 100 µM | [33] > 100 µM | [34] > 100 µM | [36] > 100 µM | [37] > 100 µM | [38] > 100 µM | [39] > 100 µM | [40] > 100 µM | [41] > 100 µM | [54] > 100 µM | [42] > 100 µM | [55] > 100 µM | [43] > 100 µM | [44] > 100 µM | [56] > 100 µM | [45] > 100 µM | [46] > 100 µM | [47] > 100 µM | [48] > 100 µM | [49] > 100 µM | [50] > 100 µM | [51] > 100 µM | [52] > 100 µM | [53] > 100 µM

O=C(c1nc2ccc(Cl)cc2[nH]c1=O)C(O)c1cccc([N+](=O)[O-])c1 (centres undefined)
inactive: [1] 16.2 µM | [2] > 100 µM | [3] > 100 µM | [4] > 100 µM | [5] > 100 µM | [6] > 100 µM | [7] 80.9 µM | [8] 48.6 µM | [9] 5.98 µM | [10] > 100 µM | [11] > 100 µM | [13] > 100 µM | [14] > 100 µM | [15] > 100 µM | [16] > 100 µM | [17] > 100 µM | [18] 64.3 µM | [19] > 100 µM | [20] > 100 µM | [21] > 100 µM | [22] > 100 µM | [23] > 100 µM | [24] > 100 µM | [25] 19.8 µM | [26] 85.7 µM | [27] > 100 µM | [28] 57 µM | [29] > 100 µM | [30] 33.3 µM | [31] > 100 µM | [32] > 100 µM | [33] > 100 µM | [34] > 100 µM | [35] > 100 µM | [36] 9.1 µM | [58] > 100 µM | [37] 5.06 µM | [38] > 100 µM | [39] 18.5 µM | [40] 16.3 µM | [41] > 100 µM | [54] > 100 µM | [42] 28.6 µM | [55] 9.66 µM | [43] 26.7 µM | [44] > 100 µM | [56] > 100 µM | [45] > 100 µM | [46] > 100 µM | [47] > 100 µM | [48] > 100 µM | [49] 35.9 µM | [50] > 100 µM | [51] > 100 µM | [52] 67.6 µM | [53] > 100 µM
> 100 µM: [57]

C/C=C/C#CC#C/C=C/C=C/C(O)CCO (centres undefined)
> 23.1 µM: [57]
inactive: [1] > 23.1 µM | [2] > 23.1 µM | [3] > 23.1 µM | [4] > 23.1 µM | [5] > 23.1 µM | [6] > 23.1 µM | [7] > 23.1 µM | [8] > 23.1 µM | [9] > 23.1 µM | [10] > 23.1 µM | [11] > 23.1 µM | [12] > 23.1 µM | [13] > 23.1 µM | [14] > 23.1 µM | [15] > 23.1 µM | [16] > 23.1 µM | [17] > 23.1 µM | [18] > 23.1 µM | [19] > 23.1 µM | [20] > 23.1 µM | [21] > 23.1 µM | [22] > 23.1 µM | [24] > 23.1 µM | [25] > 18.1 µM | [26] > 23.1 µM | [27] > 23.1 µM | [28] > 23.1 µM | [29] > 18.7 µM | [30] > 23.1 µM | [31] > 23.1 µM | [32] > 23.1 µM | [33] > 23.1 µM | [34] > 23.1 µM | [35] > 23.1 µM | [36] > 23.1 µM | [58] > 23.1 µM | [37] > 23.1 µM | [38] > 23.1 µM | [39] > 23.1 µM | [40] > 23.1 µM | [41] 17.7 µM | [54] > 23.1 µM | [42] > 23.1 µM | [55] > 23.1 µM | [43] > 23.1 µM | [44] > 23.1 µM | [56] > 23.1 µM | [45] > 23.1 µM | [46] > 23.1 µM | [47] > 23.1 µM | [48] > 23.1 µM | [49] 17.5 µM | [50] > 23.1 µM | [51] > 23.1 µM | [52] > 23.1 µM | [53] > 23.1 µM

c1ccc2c(c1)CCCC/C2=N/OCC1CO1 (centres undefined)
inactive: [2] 48.8 µM | [3] 34.7 µM | [4] 56.4 µM | [5] 56.9 µM | [6] 36.3 µM | [8] 35.5 µM | [9] 34.8 µM | [11] 46.5 µM | [12] 63.4 µM | [13] 45.7 µM | [14] 80.7 µM | [15] > 100 µM | [17] > 100 µM | [18] 99.1 µM | [20] > 100 µM | [21] 50.8 µM | [22] 41.8 µM | [23] > 100 µM | [25] 21.4 µM | [26] 26.4 µM | [28] 35.9 µM | [29] 58.7 µM | [30] 58.3 µM | [31] 22.3 µM | [32] 45 µM | [33] 72.3 µM | [34] > 100 µM | [36] 29.4 µM | [37] 46.5 µM | [39] 32.9 µM | [40] 42.1 µM | [41] 54.5 µM | [54] 53.1 µM | [42] 41.2 µM | [55] 30.3 µM | [43] 61 µM | [56] > 100 µM | [45] 53.6 µM | [46] > 100 µM | [47] 57.4 µM | [48] 51.5 µM | [49] 32.1 µM | [50] 35.3 µM | [51] 67.6 µM
active: [7] < 0.01 µM
> 100 µM: [57]
